This is an account of results in PubChem BioAssay (NCI).

The structures appear in SMILES notation.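 The compound was tested at five concentrations on cells cultured in 96-well plates, with a 48-hour exposure period. The concentration for full growth arrest is given as TGI.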 Where a SMILES comes first, the peptide text is derived from it. [ ]: non-standard residue; d: D form. β3hI = CC[CH](C)[CH](N)CC(=O)O

Assay in all cases: inhibition of tumour cell growth, NCI panel, 48 h
In experiment [1] the test system is 786-0 renal.
In experiment [2] the test system is BT-549 breast.
Experiment [3] deals with HT29 colon.
Experiment [4] concerns IGROV1 ovarian.
Experiment [5] relates to K-562 leukemia.
Experiment [6] deals with MDA-MB-231 breast.
The subject of experiment [7] is MDA-N.
Experiment [8] concerns NCI-H522 lung.
The subject of experiment [9] is OVCAR-4 ovarian.
The test system of experiment [10] is SF-295 CNS.
For experiment [11], the system named is SK-MEL-2 melanoma.
For experiment [12], the system named is SN12C renal.
Experiment [13] relates to SNB-75 CNS.
The test system of experiment [14] is SR leukemia.
The test system of experiment [15] is SW-620 colon.
The subject of experiment [16] is A498 renal.

For the compound `O=C(c1cccnc1)N1N=C(c2ccc(Cl)cc2)CC1(O)c1cc(F)c(Cl)cc1Cl` (stereo not drawn), the TGI is 53.8 µM in experiment [1]; 69.1 µM in [2]; 75.8 µM in experiment [3]; 82.1 µM in experiment [4]; more than 100 µM in experiment [5]; 38.9 µM in experiment [6]. Further, the TGI in experiment [7] was more than 100 µM; in [8], 92.1 µM; in experiment [9], more than 100 µM; in experiment [10], 56.1 µM; in experiment [11] it was 75.2 µM; in experiment [12], 37.5 µM. In addition, the TGI is 37.3 µM in experiment [13], more than 100 µM in experiment [14] and more than 100 µM in [15].
For `CC1(C)CN=C(Nc2cccc(C(F)(F)F)c2)S1`, the TGI in [1] is more than 100 µM; in [2], more than 100 µM; in experiment [3], more than 100 µM; in experiment [4], more than 100 µM; in experiment [5], more than 100 µM; in experiment [6], 16.3 µM. Moreover, the TGI in experiment [7], in experiment [8], in experiment [9], in experiment [10], in [11] and in [12] was more than 100 µM each time. Further, the TGI in [13], in experiment [14] and in experiment [15] was more than 100 µM throughout.
For `O=C(CCc1cccc(O)c1)NCCc1ccc(O)cc1`, the TGI in experiment [1], in [16], in experiment [2], in experiment [3], in [4] and in experiment [5] was more than 100 µM each time. For the same compound, the TGI in experiment [6], in experiment [7], in experiment [8], in [9], in experiment [10] and in experiment [11] was more than 100 µM throughout. Also, the TGI in experiment [12] and in experiment [14] was more than 100 µM in each case.
Consider `CN(/N=C/C=N/N(C)C1=NCCCCN1)C1=NCCCCN1`, for which the TGI in experiment [1], in experiment [2], in experiment [3], in [4], in experiment [5] and in [6] was more than 100 µM each time. Besides, the TGI in experiment [7], in experiment [8], in experiment [9], in experiment [10], in experiment [12] and in [13] was more than 100 µM each time. For the same compound, the TGI in experiment [14] and in experiment [15] was more than 100 µM each time.
On to `CC1CCC2C(C(=O)O[C@H]3C4CCO[C@@H](OC5OC(CO)C(O)C(O)C5O)C4[C@@]4(CO)O[C@@H]34)=CO[C@@H](OC3OC(CO)C(O)C(O)C3O)C12` (stereo partly drawn), for which the TGI in experiment [1], in [16], in experiment [2], in [3], in experiment [4] and in experiment [5] was more than 10 µM in each case. In addition, the TGI in experiment [6], in experiment [7], in experiment [10], in experiment [11], in experiment [12] and in experiment [13] was more than 10 µM throughout. Moreover, the TGI in experiment [14] and in experiment [15] was more than 10 µM throughout.
`COc1ccc2c(c1)N=C1CSC(c3cc([N+](=O)[O-])ccc3Cl)N1C2` (stereo not drawn): the TGI was 89.3 µM in experiment [1]; 80.7 µM in experiment [2]; 68.4 µM in experiment [3]; more than 100 µM in [4]; more than 100 µM in experiment [5]; 50 µM in experiment [6]. Besides, the TGI in experiment [7] was more than 100 µM; in experiment [8], 57 µM; in [9] it was more than 100 µM; in experiment [10] it was more than 100 µM; in [11] it was 51.1 µM; in experiment [12], 89.6 µM. The TGI in experiment [13] was 47.5 µM; in experiment [14] it was 70.1 µM; in experiment [15] it was more than 100 µM.
Consider `ClC1=C(Cc2ccccc2)Cc2ccc3c(c21)CCC3`, for which the TGI in experiment [1] is 89.1 µM; in [2], 67.5 µM; in experiment [3], 50.9 µM; in [4] it was more than 100 µM; in experiment [5], 76 µM; in [6] it was 57.3 µM. The TGI was more than 100 µM in experiment [7]; 39.5 µM in [8]; more than 100 µM in experiment [9]; 91.8 µM in [10]; more than 100 µM in [12]; 36.9 µM in experiment [14]. In [15], this compound registered a TGI of more than 100 µM.
In the case of `CCOC(=O)CCC(NC(=O)c1ccc(Nc2nc3ccccc3nc2-c2cccs2)cc1)C(=O)OCC` (stereo not drawn), the TGI in experiment [1], in [16], in experiment [2], in [3], in experiment [4] and in [5] was more than 100 µM each time. Besides, the TGI is more than 100 µM in [6]; more than 100 µM in experiment [7]; more than 100 µM in [9]; more than 100 µM in experiment [10]; 94.5 µM in [11]; more than 100 µM in experiment [12]. Besides, the TGI in experiment [13], in [14] and in experiment [15] was more than 100 µM in each case.
On to `COC(=O)C(Cc1ccccc1)OC(=O)C(N)CC(=O)O` (stereo not drawn), for which the TGI in experiment [1], in experiment [2], in experiment [3], in [4], in experiment [5] and in [6] was more than 100 µM in each case. For the same compound, the TGI in [7], in experiment [8], in experiment [10], in [11], in [12] and in experiment [13] was more than 100 µM each time. For the same compound, the TGI in experiment [14] and in [15] was more than 100 µM throughout.
In the case of `CCOC(=O)c1c(-c2ccc(OC)cc2)c(C#N)c(=S)n(C2OC(CO)C(O)C(O)C2O)c1-c1ccccc1` (stereo not drawn), the TGI in experiment [1], in experiment [2], in experiment [3], in experiment [4], in experiment [5] and in experiment [6] was more than 100 µM in each case. Moreover, the TGI in experiment [7], in experiment [9], in experiment [10], in experiment [11], in experiment [12] and in [13] was more than 100 µM each time. In addition, the TGI in experiment [14] and in experiment [15] was more than 100 µM each time.
Regarding `CCC(C)C(CC(=O)N1CCCC1C(=O)NC(C(=O)NC(C(=O)NCC(=O)NC(CC(N)=O)C(=O)NC(C(=O)NC(C(=O)NC(CCCCN)C(N)=O)C(C)CC)C(C)CC)C(C)C)C(C)CC)NC(=O)C(N)C(C)CC` (stereo not drawn) (H-I[β3hI]PIVGNIIK-NH2; configuration not given here), the TGI in [1], in experiment [16], in experiment [2], in experiment [3], in experiment [4] and in experiment [6] was more than 50 µM each time. In addition, the TGI in experiment [7], in [8], in [9], in experiment [10], in [11] and in [12] was more than 50 µM each time. In addition, the TGI in experiment [14] and in [15] was more than 50 µM in each case.
Regarding `CC(C)NC(=O)OCCN=C1c2ccccc2CCc2ccccc21`, the TGI in experiment [1] was more than 100 µM; in [2] it was 28.5 µM; in experiment [3] it was 47.6 µM; in experiment [4] it was more than 100 µM; in [5] it was 59 µM; in experiment [6] it was 66.7 µM. Besides, the TGI was 39.8 µM in experiment [7]; 43.1 µM in experiment [9]; 28.7 µM in experiment [10]; 34.6 µM in experiment [11]; 46.2 µM in [12]; more than 100 µM in experiment [13]. Moreover, the TGI is 53 µM in [14] and more than 100 µM in experiment [15].
For the compound `CN(C)c1ccc(/C=C(\NC(=O)c2ccccc2)C(=O)NC(CCC(=O)O)C(=O)O)cc1` (stereo not drawn), the TGI in experiment [1], in experiment [16], in [2], in experiment [3], in experiment [4] and in experiment [5] was more than 100 µM each time. In addition, the TGI in experiment [6], in experiment [7], in experiment [8], in [9], in [10] and in [11] was more than 100 µM each time. Besides, the TGI in experiment [12], in experiment [13] and in [15] was more than 100 µM in each case.
As for `COc1cc([N+](=O)[O-])ccc1NC1=CC(=O)CCC1`, the TGI in [1], in experiment [16], in [2], in [3], in experiment [4] and in experiment [5] was more than 100 µM in each case. In addition, the TGI in experiment [6], in experiment [7], in experiment [9], in [10], in [11] and in experiment [12] was more than 100 µM each time. Also, the TGI in experiment [13], in [14] and in experiment [15] was more than 100 µM throughout.
Consider `c1cncc(-c2ncc3cccnc3n2)c1`, for which the TGI in experiment [1], in [16], in experiment [2], in experiment [3], in experiment [4] and in experiment [5] was more than 100 µM in each case. Moreover, the TGI in [6], in [7], in [8], in experiment [9], in experiment [10] and in experiment [11] was more than 100 µM each time. The TGI in experiment [12], in experiment [13] and in experiment [15] was more than 100 µM in each case.
Turning to `O=C1CC2(CCNCC2)C(=O)N1N1CCCC1`, the TGI in experiment [1], in experiment [2], in experiment [3], in experiment [4], in [5] and in experiment [6] was more than 100 µM each time. Further, the TGI in experiment [7], in experiment [8], in [10], in experiment [12], in experiment [14] and in experiment [15] was more than 100 µM each time.
On to `CN(C1=NCCO1)c1cccc2c1CCCC2`, for which the TGI in experiment [1] was more than 10 µM; in experiment [16], 9.35 µM; in experiment [2], more than 10 µM; in experiment [3], 5.2 µM; in [4], 8.35 µM; in experiment [5], more than 10 µM. Moreover, the TGI in experiment [6] was 5.28 µM; in [7] it was more than 10 µM; in [8], more than 10 µM; in [9] it was 7.78 µM; in experiment [10] it was more than 10 µM; in experiment [11], more than 10 µM. For the same compound, the TGI in experiment [12], in [14] and in [15] was more than 10 µM throughout.
Consider `CC(=O)N[C@H]1CCCC[C@@H]1OC(C)=O`, for which the TGI in [1], in experiment [16], in [2], in experiment [3], in experiment [4] and in experiment [5] was more than 100 µM in each case. Besides, the TGI in [6], in experiment [7], in experiment [8], in experiment [9], in experiment [10] and in [11] was more than 100 µM throughout. Further, the TGI in experiment [12], in [13] and in [15] was more than 100 µM throughout.
For `c1ccc2c(c1)Nc1nc3nonc3nc1N2`, the TGI in experiment [1], in experiment [16], in experiment [2], in [3], in [4] and in experiment [5] was more than 100 µM in each case. Besides, the TGI in experiment [6], in [7], in experiment [8], in [9], in experiment [10] and in experiment [11] was more than 100 µM in each case. In addition, the TGI in [12], in [14] and in experiment [15] was more than 100 µM each time.
